Source: ChEMBL document CHEMBL1201862, “PubChem BioAssay data set” (2004)
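Cells were grown in 96-well plates and exposed to each compound for 48 hours at five concentrations; endpoints were interpolated linearly between bracketing concentrations, or set to the highest concentration if not reached. GI50 marks 50% less growth.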 Active and inactive are the calls of the source. Cut-off read from the data, not from the text of the source: active = GI50 up to about 1.1 µM and inactive = higher.

Legend:
Assay in all cases: growth of human tumour cells (NCI), 48 h
LXFL 529 = test system: LXFL 529
HOP-18 = test system: HOP-18
M19-MEL = test system: M19-MEL
XF498 = test system: XF498
RXF 631 = test system: RXF 631
DMS-273 = test system: DMS-273
DLD-1 = test system: DLD-1

Measured: GI50

CCCOC(=O)CCC(NC(=O)c1ccc(Nc2nc3ccccc3nc2-c2cccs2)cc1)C(=O)OCCC (stereo unspecified)
inactive: LXFL 529 > 100 µM | HOP-18 > 100 µM | M19-MEL > 100 µM | XF498 79.8 µM | RXF 631 > 100 µM | DMS-273 > 100 µM

O=Cc1c(Br)[nH]c2ccccc12
inactive: HOP-18 61.1 µM | M19-MEL > 79.6 µM | DLD-1 > 100 µM | XF498 > 100 µM | DMS-273 > 100 µM
